Data reported in patent publication US20250275953A1, “VODOBATINIB FOR REDUCING PROGRESSION OF PARKINSON'S DISEASE” (Sun Pharma Advanced Research Company Ltd., priority 2022, published 2025).
“Also recorded” adds a separate entry of the source.

Key:
Arg = Arg (Homo sapiens, UniProt P42684); assay: Biochemical kinase assay
Text: Conventional biochemical kinase assays, using radioactivity and fluorescence as readouts, were used to derive half maximal-inhibitory concentrations (IC50) values.

[1] = Safety and tolerability, healthy volunteers; type: in vivo, human; details: for number of treatment-related TEAEs: four subjects
Procedure: The subjects were further assessed for safety. Accordingly, hematology, chemistry, urinalysis testing and vital signs examination (seated systolic [SBP] and diastolic blood pressure [DBP], pulse, respiration rate, and temperature) were performed at screening, check-in and at the exit visit prior to discharge from the study. Seated vital signs were checked after 1 h, 4 h, and 12 h of the first dose on Day 1. 12-lead ECGs were recorded on Day 1 and Day 7 in triplicate 0.75 h, 0.5 h and 0.25 h prior to the dose and after 0.5 h, 1 h, 2 h, 3 h, 4 h, 8 h, 12 h, and 24 h of the dose with subjects in supine position. Lumbar catheter was placed on day 7 and the vital signs were checked after 1 h, 4 h, and 12 h of the dose. Vital signs were examined within 15 minutes prior to the collection of samples for PK studies.
All adverse event (AE)s were captured and documented throughout the study from the time of ICF signing to 7 days after the last dose of study medication or early termination.
The AEs were coded according to MedDRA® and grouped by Preferred Terms (PT) and System Organ Class (SOC). All AEs were classified and graded according to CTCAE Version 4.03 or later. Incidence (n) and percentage (%) was reported for coded TEAEs by cohort for the SAF Population. Subjects with more than one of the same PTs within an SOC were counted only once.
Categorical ECG analysis included the number and percentage of individuals with abnormal ECG findings and those with: absolute QTcF values >450 milliseconds, absolute QTcF values >480 milliseconds, absolute QTcF values >500 milliseconds, change from baseline >30 msec, and change from baseline >60 msec. No subject reported clinically significant abnormalities. […] No AEs related to ECG parameters were reported in any group during the study.
Forty-one healthy adult male volunteers aged 18 to 45 with body mass indexes (BMI)≥18 to ≤30 Kg/m^2 and total body weight >50 kg (110 lb) were screened in order to enroll 19 subjects with an average age of 34.2 years (range 21.5-45.6 years) into this study Six participants were randomly assigned to the 48 and 192 mg cohorts, and seven participants were assigned to the 384 mg cohort. After an overnight fast, participants received once daily doses of vodobatinib as capsules for 7 days. Serial PK blood samples to measure vodobatinib plasma concentrations were collected at pre-dose and at 0.25, 0.5, 1, 1.5, 2, 2.5, 3, 4, 6, 8, 12, 16 and 24 h post-dose after the first dose on Day 1 and the last dose on day 7. Additional PK samples prior to the morning doses were taken on Days 3-6. On the morning of Day 7, prior to dosing, an indwelling intrathecal catheter was inserted in the lumbar region (L3-L5). Serial CSF samples were collected through the catheter connected via peristaltic pump to a fraction collector. At each designated CSF collection time point, 8 mL of CSF was collected at a flow rate of 0.5 mL/min over a 16-min period at pre-dose, and 0.5, 1.0, 1.5, 2, 2.5, 3, 4, 6, 8, 12 and 24 h post-dose. The first 2 mL of CSF was discarded, and the remaining 6 mL was used for the vodobatinib assay. The occurrence of treatment-emergent adverse events (TEAEs) and serious AEs (SAEs) reported through the completion of study were collected. Clinical laboratory parameters, vital signs and physical examination data and electrocardiogram (ECG) were collected and evaluated relative to baseline values.

[2] = Total (N = 19), listed as vodobatinib
[3] = all cohorts, listed as vodobatinib

Sequence of Arg (P42684 whole entry): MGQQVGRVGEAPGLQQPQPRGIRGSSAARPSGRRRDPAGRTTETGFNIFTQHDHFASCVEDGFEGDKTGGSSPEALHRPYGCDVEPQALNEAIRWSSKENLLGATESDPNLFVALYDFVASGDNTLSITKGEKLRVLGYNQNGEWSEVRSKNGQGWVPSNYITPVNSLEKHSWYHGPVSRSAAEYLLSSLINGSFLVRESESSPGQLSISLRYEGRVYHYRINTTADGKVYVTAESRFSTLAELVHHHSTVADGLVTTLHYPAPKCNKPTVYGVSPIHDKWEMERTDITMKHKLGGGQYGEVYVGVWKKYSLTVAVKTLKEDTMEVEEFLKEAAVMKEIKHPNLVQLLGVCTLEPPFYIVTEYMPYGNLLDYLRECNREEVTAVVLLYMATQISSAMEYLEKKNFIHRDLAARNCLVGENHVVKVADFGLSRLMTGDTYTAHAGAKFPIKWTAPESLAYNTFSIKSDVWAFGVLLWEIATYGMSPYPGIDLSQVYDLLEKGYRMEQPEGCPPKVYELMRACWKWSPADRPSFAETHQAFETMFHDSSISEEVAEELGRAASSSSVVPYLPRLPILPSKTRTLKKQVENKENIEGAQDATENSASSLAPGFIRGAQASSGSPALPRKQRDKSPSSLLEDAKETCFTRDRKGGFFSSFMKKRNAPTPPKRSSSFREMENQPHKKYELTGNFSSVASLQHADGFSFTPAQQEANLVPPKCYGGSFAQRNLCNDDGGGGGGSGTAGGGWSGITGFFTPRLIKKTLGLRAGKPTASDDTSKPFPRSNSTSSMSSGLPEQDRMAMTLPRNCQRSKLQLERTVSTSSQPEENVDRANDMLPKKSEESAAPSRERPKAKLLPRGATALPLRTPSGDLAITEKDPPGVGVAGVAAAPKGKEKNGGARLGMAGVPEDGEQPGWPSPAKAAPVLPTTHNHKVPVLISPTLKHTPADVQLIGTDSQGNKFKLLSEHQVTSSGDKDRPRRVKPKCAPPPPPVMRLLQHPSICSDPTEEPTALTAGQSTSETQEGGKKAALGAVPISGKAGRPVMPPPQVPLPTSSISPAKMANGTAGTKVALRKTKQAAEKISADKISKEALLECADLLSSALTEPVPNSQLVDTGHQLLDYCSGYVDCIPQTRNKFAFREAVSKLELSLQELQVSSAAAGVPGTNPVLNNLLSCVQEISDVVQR

Cc1ccc(C(=O)NNC(=O)c2c(C)cccc2Cl)cc1C#Cc1cnc2ccccc2c1 [N′-(2-chloro-6-methylbenzoyl)-4-methyl-3-[2-(3-quinolyl)ethynyl]-benzohydrazide]
IC50 (Arg): 800 pM | IMP Related TEAEs: Abdominal Distension, N (%) ([1]; 48 mg (N = 6)): 0 | IMP Related TEAEs: Gastrointestinal Disorders, N (%) ([1]; 48 mg (N = 6)): 0 | IMP Related TEAEs: General Disorders and Administration Site Conditions, N (%) ([1]; 48 mg (N = 6)): 0 | IMP Related TEAEs: Headache, N (%) ([1]; 48 mg (N = 6)): 1 (16.7) | IMP Related TEAEs: Musculoskeletal and Connective Tissue Disorders, N (%) ([1]; 48 mg (N = 6)): 0 | IMP Related TEAEs: Myalgia, N (%) ([1]; 48 mg (N = 6)): 0 | IMP Related TEAEs: Nausea, N (%) ([1]; 48 mg (N = 6)): 0 | IMP Related TEAEs: Nervous System Disorders, N (%) ([1]; 48 mg (N = 6)): 1 (16.7) | IMP Related TEAEs: Pain, N (%) ([1]; 48 mg (N = 6)): 0 | IMP Related TEAEs: Subjects with at least one AE, N (%) ([1]; 48 mg (N = 6)): 1 (16.7) | IMP Related TEAEs: Subjects with more than one AE, N (%) ([1]; 48 mg (N = 6)): 0 | Number of subjects with at least one TEAE ([1]; 48 mg (N = 6)): 4 | Study Drug Related TEAEs, subjects ([1]; 48 mg (N = 6)): 1 | Study Drug Withdrawn, subjects ([1]; 48 mg (N = 6)): 0 | TEAEs Certainly, subjects ([1]; 48 mg (N = 6)): 0 | TEAEs Mild, subjects ([1]; 48 mg (N = 6)): 4 | TEAEs Moderate, subjects ([1]; 48 mg (N = 6)): 1 | TEAEs None (row before Study Drug Withdrawn), subjects ([1]; 48 mg (N = 6)): 4 | TEAEs Possibly, subjects ([1]; 48 mg (N = 6)): 1 | TEAEs Probably, subjects ([1]; 48 mg (N = 6)): 0 | TEAEs Unlikely, subjects ([1]; 48 mg (N = 6)): 0 | TEAEs Unrelated, subjects ([1]; 48 mg (N = 6)): 4 | number of TEAEs ([1]; 48 mg (N = 6)): 9 | IMP Related TEAEs: Abdominal Distension, N (%) ([1]; 192 mg (N = 6)): 0 | IMP Related TEAEs: Gastrointestinal Disorders, N (%) ([1]; 192 mg (N = 6)): 1 (16.7) | IMP Related TEAEs: General Disorders and Administration Site Conditions, N (%) ([1]; 192 mg (N = 6)): 0 | IMP Related TEAEs: Headache, N (%) ([1]; 192 mg (N = 6)): 1 (16.7) | IMP Related TEAEs: Musculoskeletal and Connective Tissue Disorders, N (%) ([1]; 192 mg (N = 6)): 1 (16.7) | IMP Related TEAEs: Myalgia, N (%) ([1]; 192 mg (N = 6)): 1 (16.7) | IMP Related TEAEs: Nausea, N (%) ([1]; 192 mg (N = 6)): 1 (16.7) | IMP Related TEAEs: Nervous System Disorders, N (%) ([1]; 192 mg (N = 6)): 1 (16.7) | IMP Related TEAEs: Pain, N (%) ([1]; 192 mg (N = 6)): 0 | IMP Related TEAEs: Subjects with at least one AE, N (%) ([1]; 192 mg (N = 6)): 1 (16.7) | IMP Related TEAEs: Subjects with more than one AE, N (%) ([1]; 192 mg (N = 6)): 1 (16.7) | Number of subjects with at least one TEAE ([1]; 192 mg (N = 6)): 4 | Study Drug Related TEAEs, subjects ([1]; 192 mg (N = 6)): 1 | Study Drug Withdrawn, subjects ([1]; 192 mg (N = 6)): 0 | TEAEs Certainly, subjects ([1]; 192 mg (N = 6)): 0 | TEAEs Mild, subjects ([1]; 192 mg (N = 6)): 4 | TEAEs Moderate, subjects ([1]; 192 mg (N = 6)): 2 | TEAEs None (row before Study Drug Withdrawn), subjects ([1]; 192 mg (N = 6)): 4 | TEAEs Possibly, subjects ([1]; 192 mg (N = 6)): 1 | TEAEs Probably, subjects ([1]; 192 mg (N = 6)): 0 | TEAEs Unlikely, subjects ([1]; 192 mg (N = 6)): 1 | TEAEs Unrelated, subjects ([1]; 192 mg (N = 6)): 3 | number of TEAEs ([1]; 192 mg (N = 6)): 10 | IMP Related TEAEs: Abdominal Distension, N (%) ([1]; 384 mg (N = 7)): 1 (14.3) | IMP Related TEAEs: Gastrointestinal Disorders, N (%) ([1]; 384 mg (N = 7)): 1 (14.3) | IMP Related TEAEs: General Disorders and Administration Site Conditions, N (%) ([1]; 384 mg (N = 7)): 1 (14.3) | IMP Related TEAEs: Headache, N (%) ([1]; 384 mg (N = 7)): 1 (14.3) | IMP Related TEAEs: Musculoskeletal and Connective Tissue Disorders, N (%) ([1]; 384 mg (N = 7)): 0 | IMP Related TEAEs: Myalgia, N (%) ([1]; 384 mg (N = 7)): 0 | IMP Related TEAEs: Nausea, N (%) ([1]; 384 mg (N = 7)): 1 (14.3) | IMP Related TEAEs: Nervous System Disorders, N (%) ([1]; 384 mg (N = 7)): 1 (14.3) | IMP Related TEAEs: Pain, N (%) ([1]; 384 mg (N = 7)): 1 (14.3) | IMP Related TEAEs: Subjects with at least one AE, N (%) ([1]; 384 mg (N = 7)): 2 (28.6) | IMP Related TEAEs: Subjects with more than one AE, N (%) ([1]; 384 mg (N = 7)): 1 (14.3) | Number of subjects with at least one TEAE ([1]; 384 mg (N = 7)): 3 | Study Drug Related TEAEs, subjects ([1]; 384 mg (N = 7)): 2 | Study Drug Withdrawn, subjects ([1]; 384 mg (N = 7)): 0 | TEAEs Certainly, subjects ([1]; 384 mg (N = 7)): 0 | TEAEs Mild, subjects ([1]; 384 mg (N = 7)): 3 | TEAEs Moderate, subjects ([1]; 384 mg (N = 7)): 1 | TEAEs None (row before Study Drug Withdrawn), subjects ([1]; 384 mg (N = 7)): 3 | TEAEs Possibly, subjects ([1]; 384 mg (N = 7)): 2 | TEAEs Probably, subjects ([1]; 384 mg (N = 7)): 1 | TEAEs Unlikely, subjects ([1]; 384 mg (N = 7)): 3 | TEAEs Unrelated, subjects ([1]; 384 mg (N = 7)): 0 | number of TEAEs ([1]; 384 mg (N = 7)): 9 | subjects with absolute QTcF >450 ms ([1]; 48, 192, 384 mg): None of the subjects | Study Drug Withdrawn, subjects ([1]; Total (N = 19)): 0 | TEAEs Certainly, subjects ([1]; Total (N = 19)): 0 | TEAEs Mild, subjects ([1]; Total (N = 19)): 11 | TEAEs Moderate, subjects ([1]; Total (N = 19)): 4 | TEAEs None (row before Study Drug Withdrawn), subjects ([1]; Total (N = 19)): 11 | TEAEs Possibly, subjects ([1]; Total (N = 19)): 4 | TEAEs Probably, subjects ([1]; Total (N = 19)): 1 | TEAEs Unlikely, subjects ([1]; Total (N = 19)): 4 | TEAEs Unrelated, subjects ([1]; Total (N = 19)): 7 | number of TEAEs ([1]; Total (N = 19)): 28 | Number of subjects with at least one TEAE [1, 2]: Eleven | Study Drug Related TEAEs, subjects [1, 2]: Four | SAEs ([1]; all cohorts): No subject experienced an SAE; also recorded: no SAEs | TEAE abdominal distention ([1]; all cohorts): 10.5% | TEAE back pain ([1]; all cohorts): 10.5% | TEAE headache and nausea ([1]; all cohorts): 15.8% | TEAE post lumbar puncture syndrome ([1]; all cohorts): 42.1% | findings in clinical laboratory results, vital signs, ECGs, physical examinations ([1]; all cohorts): no clinically relevant or significant findings | subjects with TEAEs unlikely related to study treatment ([1]; all cohorts): 21% | subjects with TEAEs unrelated to study treatment ([1]; all cohorts): 37% | subjects with mild TEAEs ([1]; all cohorts): 58% | subjects with moderate TEAEs ([1]; all cohorts): 21% | subjects reporting TEAEs ([1]; all cohorts (N = 19)): 58% | number of treatment-related TEAEs ([1]; all cohorts): 7 | number of treatment-related TEAEs [1, 3]: seven | SAEs [1, 3]: no SAEs
